Reference: US10828301B2, “2,4-pyrimidinediamine compounds and their uses” (Rigel Pharmaceuticals, Inc, priority 2002, dated 2020)

Columns and labels:
[1] = tested on: cultured human mast cells (CHMC); experiment: CHMC low cell density ionomycin activation: tryptase assay; type: cell-based; conditions: read-out: CHMC Ionomycin Tryptase
[2] = tested on: cultured human mast cells (CHMC); experiment: CHMC low cell density IgE activation: tryptase and LTC4 assays; type: cell-based
Procedure, shortened: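 Degranulation measured after 30 min anti-IgE challenge at 37° C of CHMC plated at 1000-1500 cells/well following 1 h preincubation. Readouts: LTC4 by ELISA on donor-specific diluted supernatants, and tryptase activity from a 30 min room-temperature substrate reaction.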

[3] = Homo sapiens, Mast cell, Low Density CHMC, ionomycin activation, tryptase readout
[4] = Homo sapiens, Mast cell, Low Density CHMC, anti-IgE activation, tryptase readout, read-out: CHMC anti-IgE Tryptase

IC50 [1, 3]	IC50 [2, 4]	Compound	further results
> 10 µM	3100 nM	c1cc(Nc2ccc3c(c2)OCCO3)nc(Nc2ccc3c(c2)OCCO3)n1 [Compound R926243, N2,N4-Bis(3,4-ethylenedioxyphenyl)-2,4-pyrimidinediamine]	
9.4 µM	3100 nM	Clc1cc(Nc2ccc3c(c2)OCCO3)nc(Nc2ccc3c(c2)OCCO3)n1 [Compound R926245, N2,N4-Bis(3,4-ethylenedioxyphenyl)-6-chloro-2,4-pyrimidinediamine]	
> 10 µM	> 10000 nM	CCOC(=O)c1cnc(Nc2ccc(CC#N)cc2)nc1Nc1ccc(CC#N)cc1 [Compound R926319, N2,N4-Bis(4-cyanomethylphenyl)-5-ethoxycarbonyl-2,4-pyrimidinediamine]	
> 10 µM	> 10000 nM	CCOC(=O)C=Nc1ccc(Nc2ncc(C(=O)OCC)c(Nc3ccc(N=CC(=O)OCC)cc3)n2)cc1 [Compound R926331, N2,N4-Bis(4-ethoxycarbonylmethyleneaminophenyl)-5-ethoxycarbonyl-2,4-pyrimidinediamine]	
> 10 µM	660 nM	COc1ccc(Nc2ncc(F)c(Nc3ccc(OC)c(O)c3)n2)cc1O [Compound R926339, N2,N4-Bis(3-hydroxy-4-methoxyphenyl)-5-fluoro-2,4-pyrimidinediamine]	
> 10 µM	3230 nM	CCOC(=O)Nc1ccc(Nc2ncc(F)c(Nc3ccc(NC(=O)OCC)c(O)c3)n2)cc1O [Compound R926340, N2,N4-Bis(4-ethoxycarbonylamino-3-hydroxyphenyl)-5-fluoro-2,4-pyrimidinediamine]	
> 10 µM	> 10000 nM	Fc1cnc(Nc2ccc3c(c2)OC(F)(F)O3)nc1Nc1ccc2c(c1)OCCO2 [Compound R926386, N2-(2,2-Difluorobenzodioxol-5-yl)-N4-(3,4-ethylenedioxyphenyl)-5-fluoro-2,4-pyrimidinediamine]	
> 10 µM	> 10000 nM	Fc1cnc(Nc2cccc(OCc3ccccc3)c2)nc1Nc1cccc(OCc2ccccc2)c1 [Compound R926394, N2,N4-Bis(3-benzyloxyphenyl)-5-fluoro-2,4-pyrimidinediamine]	
> 10 µM	> 10000 nM	Cc1cnc(NCCc2ccc(O)cc2)nc1NCCc1ccc(O)cc1 [Compound R926397, N2,N4-Bis[2-(4-hydroxyphenyl)ethyl]-5-methyl-2,4-pyrimidinediamine]	
> 10 µM	> 10000 nM	Fc1cnc(Nc2ccccc2-c2ccccc2)nc1Nc1ccccc1-c1ccccc1 [Compound R926398, N2,N4-Bis(2-phenylphenyl)-5-fluoro-2,4-pyrimidinediamine]	
> 10 µM	> 10000 nM	Fc1cnc(Nc2cccc(-c3ccccc3)c2)nc1Nc1cccc(-c2ccccc2)c1 [Compound R926403, N2,N4-Bis[(3-phenyl)phenyl]-5-fluoro-2,4-pyrimidinediamine]	
> 10 µM	> 10000 nM	Cc1cnc(Nc2ccccc2-c2ccccc2)nc1Nc1ccccc1-c1ccccc1 [Compound R926404, N2,N4-Bis(2-phenylphenyl)-5-methyl-2,4-pyrimidinediamine]	
> 10 µM	3400 nM	Oc1ccc(Nc2ncc(F)c(Nc3ccc(O)cc3)n2)cc1 [Compound R926405, N2,N4-Bis(4-hydroxyphenyl)-5-fluoro-2,4-pyrimidinediamine]	
> 10 µM	9600 nM	Oc1cccc(Nc2cc(Cl)nc(Nc3cccc(O)c3)n2)c1 [Compound R926408, N2,N4-Bis(3-hydroxyphenyl)-6-chloro-2,4-pyrimidinediamine]	
> 10 µM	3150 nM	Oc1cccc(Nc2cc(Nc3cccc(O)c3)nc(Nc3cccc(O)c3)n2)c1 [Compound R926409, N2,N4,N6-Tris(3-hydroxyphenyl)-2,4,6-pyrimidinetriamine]	
		CC(C)NC(=O)Oc1cccc(Nc2ncc(F)c(Nc3cccc(OC(=O)NC(C)C)c3)n2)c1 [Compound R926412, N2,N4-Bis(3-isopropylaminocarbonyloxyphenyl)-5-fluoro-2,4-pyrimidinediamine]	IC50 ([1]; Homo sapiens, Mast cell): > 10 µM; IC50 ([2]; Homo sapiens, Mast cell, read-out: CHMC anti-IgE Tryptase): 620 nM
8.8 µM	1180 nM	Clc1nc(Nc2ccc3c(c2)OCCO3)nc(Nc2ccc3c(c2)OCCO3)c1Cl [Compound R926467, N2,N4-Bis(3,4-ethylenedioxyphenyl)-5,6-dichloro-2,4-pyrimidinediamine]	
> 10 µM	2500 nM	CCOC(=O)c1cc2cc(Nc3ncc(F)c(Nc4ccc(C(C)(C)C)cc4)n3)ccc2[nH]1 [Compound R926474, N4-(4-tert-Butylphenyl)-N2-(2-ethoxycarbonylindol-5-yl)-5-fluoro-2,4-pyrimidinediamine]	

IC50 [1, 3]	IC50 [2, 4]	Compound	further results
7.7 µM	600 nM	CCOC(=O)c1cc2cc(Nc3ncc(F)c(Nc4ccc5c(c4)OCCO5)n3)ccc2[nH]1 [Compound R926476, N2-(2-Ethoxycarbonylindol-5-yl)-N4-(3,4-ethylenedioxyphenyl)-5-fluoro-2,4-pyrimidinediamine]	
> 10 µM	270 nM	COC(=O)c1cc2cc(Nc3ncc(F)c(Nc4ccc(C(C)(C)C)cc4)n3)ccc2o1 [Compound R926477, N4-(4-tert-Butylphenyl)-5-fluoro-N2-(2-methoxycarbonylbenzofuran-5-yl)-2,4-pyrimidinediamine]	
> 10 µM	1440 nM	CC(C)(C)c1ccc(Nc2nc(Nc3ccc4oc(C(=O)O)cc4c3)ncc2F)cc1 [Compound R926481, N4-(4-tert-Butylphenyl)-N2-(2-carboxybenzofuran-5-yl)-5-fluoro-2,4-pyrimidinediamine]	
> 10 µM	4010 nM	COC(=O)c1cc2cc(Nc3nc(Nc4ccc5c(c4)OCCO5)ncc3F)ccc2o1 [Compound R926485, N2-(3,4-Ethylenedioxyphenyl)-N4-(2-methoxycarbonylbenzofuran-5-yl)-5-fluoro-2,4-pyrimidinediamine]	
8.87 µM	554 nM	COC(=O)c1cc2cc(Nc3ncc(F)c(Nc4cccc(OC(C)C)c4)n3)ccc2o1 [Compound R926487, 5-Fluoro-N4-(3-isopropoxyphenyl)-N2-(2-methoxycarbonylbenzofuran-5-yl)-2,4-pyrimidinediamine]	IC50 ([2]; Homo sapiens, Mast cell, Low Density CHMC, anti-IgE activation, LTC4 readout, read-out: CHMC anti-IgE LTC4): 1250 nM
> 10 µM	1160 nM	CNC(=O)c1cc2cc(Nc3nc(Nc4ccc5c(c4)OCCO5)ncc3F)ccc2o1 [Compound R926491, N2-(3,4-Ethylenedioxyphenyl)-5-fluoro-N4-[2-(N-methylamino)carbonylbenzofuran-5-yl]-2,4-pyrimidinediamine]	
> 10 µM	1000 nM	c1cc2c(cc1Nc1cc(Nc3ccc4c(c3)OCCO4)nc(Nc3ccc4c(c3)OCCO4)n1)OCCO2 [Compound R926516, N2,N4,N6-Tris(3,4-ethylenedioxyphenyl)-2,4,6-pyrimidinetriamine]	
> 10 µM	1300 nM	Fc1cnc(Nc2ccc3[nH]ccc3c2)nc1Nc1ccc2[nH]ccc2c1 [Compound R926582, N2,N4-Bis(indol-5-yl)-5-fluoro-2,4-pyrimidinediamine]	
> 10 µM	2620 nM	Oc1cccc(Nc2nc(Cl)c(Cl)c(Nc3cccc(O)c3)n2)c1 [Compound R926591, N2,N4-Bis(3-hydroxyphenyl)-5,6-dichloro-2,4-pyrimidinediamine]	
		COC(=O)c1cc2cc(Nc3ncc(F)c(Nc4ccc5[nH]c(C(=O)OC)cc5c4)n3)ccc2[nH]1 [Compound R926593]	IC50 ([1]; Low Density CHMC, ionomycin activation, tryptase readout): 8.3 µM; IC50 ([2]; Low Density CHMC, anti-IgE activation, LTC4 readout, read-out: CHMC anti-IgE LTC4): 495 nM; IC50 ([2]; Low Density CHMC, anti-IgE activation, tryptase readout, read-out: CHMC anti-IgE Tryptase): 680 nM
> 10 µM	2850 nM	COC(=O)c1cc2cc(Nc3ncc(F)c(Nc4ccc5oc(C(=O)OC)cc5c4)n3)ccc2o1 [Compound R926604, N2,N4-Bis(2-methoxycarbonylbenzofuran-5-yl)-5-fluoro-2,4-pyrimidinediamine]	
> 10 µM	2450 nM	COC(=O)Cc1ccc(Nc2ncc(F)c(Nc3ccc(CC(=O)OC)cc3)n2)cc1 [Compound R926605, N2,N4-Bis[4-(methoxycarbonylmethyl)phenyl]-5-fluoro-2,4-pyrimidinediamine]	
> 10 µM	445 nM	CCOC(=O)c1cc2cc(Nc3ncc(F)c(Nc4cccc(O)c4)n3)ccc2[nH]1 [Compound R926615, N2-(2-Ethoxycarbonylindol-5-yl)-5-fluoro-N4-(3-hydroxyphenyl)-2,4-pyrimidinediamine]	
3.25 µM	625 nM	CCOC(=O)c1cc2cc(Nc3ncc(F)c(Nc4ccc5[nH]c(C(=O)OCC)cc5c4)n3)ccc2[nH]1 [Compound R926616, N2,N4-Bis(2-ethoxycarbonylindol-5-yl)-5-fluoro-2,4-pyrimidinediamine]	
> 10 µM	9450 nM	O=c1ccc2cc(Nc3ncc(F)c(Nc4ccc5oc(=O)ccc5c4)n3)ccc2o1 [Compound R926617, N2,N4-Bis(coumarin-6-yl)-5-fluoro-2,4-pyrimidinediamine]	
> 10 µM	> 10000 nM	Cc1cc(Nc2ncc(F)c(Nc3cc(C)c(O)cc3C)n2)c(C)cc1O [Compound R926623, N2,N4-Bis(2,5-dimethyl-4-hydroxyphenyl)-5-fluoro-2,4-pyrimidinediamine]	
> 10 µM	> 10000 nM	CCOC(=O)Cc1ccc(Nc2ncc(C#N)c(Nc3ccc(CC(=O)OCC)cc3)n2)cc1 [Compound R926662, N2,N4-Bis[4-(ethoxycarbonylmethyl)phenyl]-5-cyano-2,4-pyrimidinediamine]	

Compound	IC50 [1, 3]	IC50 [2, 4]	further results
Fc1cnc(Nc2ccc3cc[nH]c3c2)nc1Nc1ccc2cc[nH]c2c1 [Compound R926594, N2,N4-Bis(indol-6-yl)-5-fluoro-2,4-pyrimidinediamine]	> 10 µM	> 10000 nM	
